The source of these data is patent US20240158446A1, “CYCLIC COMPOUND HAVING SELECTIVE INHIBITORY ACTION ON KRAS OVER HRAS AND NRAS” (CHUGAI SEIYAKU KABUSHIKI KAISHA, priority 2021, published 2024).

In assay [1] the test system is human lung cancer strain NCI-H441.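 Also: cell proliferation inhibition after four days measured by CellTiter-Glo.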
Assay [2] concerns the target GDP-bound KRAS wild-type protein (Homo sapiens, UniProt P01116). Put plainly: Binding to KRAS by surface plasmon resonance (SPR), Single Cycle Kinetics. As to conditions: SPR, Single Cycle Kinetics, 1:1 binding model; GDP-bound KRAS wild-type protein; read-out: KRAS KD. A general note: In SPR one partner is held on a chip, and binding of the other changes the refractive index at the surface.

For assay [3], the target named is GDP-bound NRAS wild-type protein (Homo sapiens, UniProt P01111). Description: Binding to NRAS by surface plasmon resonance (SPR), Single Cycle Kinetics. Particulars: SPR; GDP-bound NRAS wild-type protein vs GDP-bound KRAS wild-type protein; KD ratio class.
Sequence of GDP-bound NRAS wild-type protein (P01111 whole entry): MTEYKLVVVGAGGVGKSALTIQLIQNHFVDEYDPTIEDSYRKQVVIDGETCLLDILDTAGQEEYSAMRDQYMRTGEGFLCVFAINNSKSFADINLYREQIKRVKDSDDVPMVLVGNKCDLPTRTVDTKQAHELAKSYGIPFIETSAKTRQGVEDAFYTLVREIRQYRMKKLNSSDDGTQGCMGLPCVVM
For assay [4], the target named is GDP-bound HRAS wild-type protein (Homo sapiens, UniProt P01112). Put plainly: Binding to HRAS by surface plasmon resonance (SPR), Single Cycle Kinetics. As to conditions: SPR; GDP-bound HRAS wild-type protein vs GDP-bound KRAS wild-type protein; KD ratio class.
Sequence of GDP-bound HRAS wild-type protein (P01112 whole entry): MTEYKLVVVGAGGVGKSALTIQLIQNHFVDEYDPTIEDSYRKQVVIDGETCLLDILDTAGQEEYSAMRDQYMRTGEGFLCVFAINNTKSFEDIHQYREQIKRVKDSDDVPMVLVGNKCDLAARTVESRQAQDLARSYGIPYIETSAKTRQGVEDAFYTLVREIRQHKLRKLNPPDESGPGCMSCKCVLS

Sequence of GDP-bound KRAS wild-type protein (P01116 whole entry): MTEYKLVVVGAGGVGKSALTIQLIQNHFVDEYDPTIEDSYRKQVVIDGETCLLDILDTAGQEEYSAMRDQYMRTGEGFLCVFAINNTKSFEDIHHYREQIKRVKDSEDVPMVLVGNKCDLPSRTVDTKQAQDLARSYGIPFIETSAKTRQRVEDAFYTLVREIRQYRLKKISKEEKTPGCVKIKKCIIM

What is called IC50 is the midpoint of a concentration-inhibition curve. The Kd is the free concentration of one partner at which half of the binding sites on the other are occupied at equilibrium, for simple one-to-one binding. Regarding `CCO[C@@H]1C[C@H]2C(=O)NC3(CCC3)C(=O)N(C)[C@@H](C3CCCC3)C(=O)N(C)[C@H](C(=O)N(C)C)CC(=O)N(C)[C@@H](CC)C(=O)N[C@@H]([C@@H](C)CC)C(=O)N(C)CC(=O)N(C)[C@H]3C/C=C\CCN(C3=O)[C@@H](Cc3ccc(C(F)(F)F)cc3)C(=O)N(C)CC(=O)N[C@@H](CCc3ccc(Cl)c(Cl)c3)C(=O)N2C1` [PP1249], in assay [1], inhibition was half-maximal at 55.4 nM (IC50). Further, in assay [2], the dissociation constant Kd came to 0.18 nM. Further, the “NRAS/KRAS (ratio of KD value for NRAS to KD value for KRAS)” value in assay [3] is “A (a compound having 10 or more and less than 20 is denoted as A)”. Moreover, in assay [4], the “HRAS/KRAS (ratio of KD value for HRAS to KD value for KRAS)” value was “A (a compound having 10 or more and less than 20 is denoted as A)”.
`CCC[C@H]1C(=O)N[C@@H]([C@@H](C)CC)C(=O)N(C)CC(=O)N(C)[C@H]2C/C=C\CCN(C2=O)[C@@H](Cc2ccc(C(F)(F)F)cc2)C(=O)N(C)CC(=O)N[C@@H](CCc2ccc(Cl)c(Cl)c2)C(=O)N2C[C@H](OCC)C[C@H]2C(=O)NC2(CCC2)C(=O)N(C)[C@@H](C2CCCC2)C(=O)N(C)[C@H](C(=O)N(C)C)CC(=O)N1C` [PP1250]: the midpoint of inhibition in assay [1], the IC50, lay at 18.7 nM. In addition, the Kd in assay [2] is 0.19 nM. Further, the “NRAS/KRAS (ratio of KD value for NRAS to KD value for KRAS)” value in assay [3] is reported as “AA (a compound having 20 or more is denoted as AA)”. Besides, the “HRAS/KRAS (ratio of KD value for HRAS to KD value for KRAS)” value in assay [4] is “A (a compound having 10 or more and less than 20 is denoted as A)”.
On to `CCO[C@@H]1C[C@H]2C(=O)NC3(CCC3)C(=O)N(C)[C@@H](C3CCCC3)C(=O)N(C)[C@H](C(=O)N(C)C)CC(=O)N(C)[C@@H](CC(C)C)C(=O)N[C@@H]([C@@H](C)CC)C(=O)N(C)CC(=O)N(C)[C@H]3C/C=C\CCN(C3=O)[C@@H](Cc3ccc(C(F)(F)F)cc3)C(=O)N(C)CC(=O)N[C@@H](CCc3ccc(Cl)c(Cl)c3)C(=O)N2C1` [PP1251], for which, in assay [1], the IC50 was 10.2 nM. For the same compound, the Kd in assay [2] was 0.18 nM. Besides, in assay [3], the “NRAS/KRAS (ratio of KD value for NRAS to KD value for KRAS)” value was “AA (a compound having 20 or more is denoted as AA)”. In addition, in assay [4], the “HRAS/KRAS (ratio of KD value for HRAS to KD value for KRAS)” value is “A (a compound having 10 or more and less than 20 is denoted as A)”.
Consider `CCCCCC[C@H]1C(=O)N[C@@H]([C@@H](C)CC)C(=O)N(C)CC(=O)N(C)[C@H]2C/C=C\CCN(C2=O)[C@@H](Cc2ccc(C(F)(F)F)cc2)C(=O)N(C)CC(=O)N[C@@H](CCc2ccc(Cl)c(Cl)c2)C(=O)N2C[C@H](OCC)C[C@H]2C(=O)NC2(CCC2)C(=O)N(C)[C@@H](C2CCCC2)C(=O)N(C)[C@H](C(=O)N(C)C)CC(=O)N1C` [PP1252], for which half-maximal inhibition in assay [1] (IC50) was put at 51.2 nM. Also, the Kd in assay [2] is 0.3 nM. In assay [3], the “NRAS/KRAS (ratio of KD value for NRAS to KD value for KRAS)” value was “AA (a compound having 20 or more is denoted as AA)”. Besides, the “HRAS/KRAS (ratio of KD value for HRAS to KD value for KRAS)” value in assay [4] was “A (a compound having 10 or more and less than 20 is denoted as A)”.
Regarding `CCO[C@@H]1C[C@H]2C(=O)NC3(CCC3)C(=O)N(C)[C@@H](C3CCCC3)C(=O)N(C)[C@H](C(=O)N(C)C)CC(=O)N(C)[C@@H](CC3CC3)C(=O)N[C@@H]([C@@H](C)CC)C(=O)N(C)CC(=O)N(C)[C@H]3C/C=C\CCN(C3=O)[C@@H](Cc3ccc(C(F)(F)F)cc3)C(=O)N(C)CC(=O)N[C@@H](CCc3ccc(Cl)c(Cl)c3)C(=O)N2C1` [PP1253, (2S,8S,12R,14S,20S,23S,27S,30S,36S,38Z)-20-cyclopentyl-27-(cyclopropylmethyl)-8-[2-(3,4-dichlorophenyl)ethyl]-12-ethoxy-N,N,4,19,22,26,32,35-octamethyl-30-[(1S)-1-methylpropyl]-3,6,9,15,18,21,25,28,31,34,42-undecaoxo-2-[[4-(trifluoromethyl)phenyl]methyl]spiro[1,4,7,10,16,19,22,26,29,32,35-undecazatricyclo[34.5.1.0^10,14]dotetracont-38-ene-17,1′-cyclobutane]-23-carboxamide], the IC50 in assay [1] stood at 22.2 nM. Besides, in assay [2], the Kd is 0.2 nM. Further, the “NRAS/KRAS (ratio of KD value for NRAS to KD value for KRAS)” value in assay [3] is “A (a compound having 10 or more and less than 20 is denoted as A)”. Besides, in assay [4], the “HRAS/KRAS (ratio of KD value for HRAS to KD value for KRAS)” value is “A (a compound having 10 or more and less than 20 is denoted as A)”.
